Laboratory results from US12421556B2, “Materials and methods for stratifying and treating cancers” (The Institute of Cancer Research:Royal Cancer Hospital, priority 2017, dated 2025).

Tests used:
[1] = test system: advanced soft tissue sarcoma; experiment: RMH-SARC retrospective cohort: advanced STS patients treated with pazopanib, PFS, OS and RECIST 1.1 response; format: in vivo, human
Source text: Collection and analysis of anonymised archival FFPE tissue and associated clinical data was approved in as a sub-study protocol amendment to the Royal Marsden-sponsored Elucidation of a Molecular signature of Pazopanib Response in Advanced soft tissue Sarcoma including solitary fibrous tumours (EMPRASS) study. (RMH Committee for Clinical Research reference 4107, NHS Research Ethic Committee reference 14/WA/0164). This cohort is referred to as RMH-SARC in this manuscript.
Patients were retrospectively identified for inclusion by search of institutional database and electronic patient records compiled during routine clinical practice. Eligibility criteria for inclusion were: i) histopathological diagnosis of soft tissue tumour as confirmed by contemporaneous report by specialist sarcoma histopathologist; ii) received at least one dose of pazopanib for treatment of unresectable or advanced STS; iii) available FFPE tumour specimen, obtained from patient prior to first dose of pazopanib. Treatment and response monitoring was as per standard institutional practice, with pazopanib at 800 mg once daily until disease progression, intolerable toxicity or significant clinical deterioration. Dose interruption and/or reduction were instigated based on standard institutional guidelines and the discretion of the treating physician. Baseline clinico-pathological characteristics and survival data were collected on retrospective review of contemporaneous electronic medical records. All related radiological imaging was retrospectively reviewed and disease response assessed according to RECIST 1.1. This manuscript is written according to the Reporting Recommendations for Tumor Marker Prognostic Studies (REMARK) guidelines15.
The stepwise primary objectives were to assess whether a surrogate of two immunohistochemical markers (FGFR1 and PDGFRA) and TP53 mutation status had statistical significant prognostic information for advanced STS. In this event, the two biomarkers panel were tested to determine if there is added statistically significant prognostic information to standard clinicopathological variables in multivariable comparisons. The secondary analyses included identification of biological subgroups based on gene expression profiles, and evaluation of the significance of these biological subgroups association with patient outcome. Progression free survival (PFS—defined as time in months from first dose of pazopanib to radiological disease progression or death from any cause) was the primary outcome endpoint, with overall survival (OS—defined as a time in months from first dose of pazopanib to death from any cause) as the secondary outcome endpoint. Data cut-off for survival follow-up was 30 Nov. 2016. Statistical analyses were performed by two senior statisticians. The Kaplan-Meier method was used to estimate PFS and OS, and the log-rank test to compare survival in different strata. Multivariable cox regression model was used to estimate the significance adjusted for the standard clinicopathological variables (including age, tumour grade, performance status and histological subtype). Proportional hazard assumption was tested using Schoenfeld residuals, and where deemed appropriate, Restricted Mean Survival was used. Interaction tests between FGFR1 and PDGFRA expression to predict for survival were evaluated for PFS and OS respectively. Likelihood ratio tests based on proportional hazards regression were used to test the prognostic information of all biomarkers. The quantification of the amount of prognostic information provided by one biomarker was assessed by the likelihood ratio χ^2 value (LRχ^2), and the additional information of one biomarker to biomarker score was measured by the increase of the likelihood ratio χ^2 value (ΔLRχ^2) obtained from the proportional hazards model.
Patients were identified by retrospective search of prospectively compiled institutional database and electronic patient records. […]

STS subtypes = conditions: randomised phase II trial; cited from earlier work
advanced STS = conditions: 1st line, in combination with doxorubicin; cited from earlier work
[2] = F-Lo/P-Hi (FGFR1-Lo/PDGFRA-Hi) subgroup
[3] = gene expression subgroup A (IHCneg, TP53 wt)

Compound: Cc1ccc(Nc2nccc(N(C)c3ccc4c(C)n(C)nc4c3)n2)cc1S(N)(=O)=O [pazopanib, Pazopanib]
- patients who had died (overall survival event) ([1]; 31 of 38 patients, median follow-up 26.2 months): 82%
- patients with a progression-free survival event ([1]; 35 of 38 patients, median follow-up 26.2 months): 92%
- median OS [1, 2]: 1.7 months
- median PFS [1, 2]: 1.4 months
- PFS HR, multivariable analysis ([1]; F-Lo/P-Hi v. IHCneg, adjusted for clinico-pathological factors, 95% CI 3.86-40.72): 12.54
- OS HR, multivariable analysis ([1]; F-Lo/P-Hi v. IHCneg, adjusted, 95% CI 5.90-82.81): 22.11
- OS HR, univariate analysis ([1]; FGFR1-Lo/PDGFRA-Hi v. IHCneg, 95% CI 2.51-17.91): 6.70
- PFS HR, univariate analysis ([1]; FGFR1-Lo/PDGFRA-Hi v. IHCneg, 95% CI 3.58-25.94): 9.64
- progression as best response ([1]; RECIST 1.1, 17/38): 44.7%
- objective radiological response ([1]; RECIST 1.1, best response, 1/38): 2.6%
- stable disease ([1]; RECIST 1.1, best response, 20/38): 52.6%
- PFS HR, univariate analysis ([1]; TP53 mutated v. wildtype, all 38 patients, 95% CI 0.83-3.76, P 0.14): 1.77
- OS HR, univariate analysis ([1]; TP53 mutated v. wildtype, all 38 patients, 95% CI 1.15-5.51, P 0.02): 2.51
- PFS HR ([1]; TP53 mutation v. wildtype in 31 IHCneg cases, 95% CI 1.03-5.34, p=0.04): 2.34
- OS HR ([1]; TP53 mutation v. wildtype in 31 IHCneg cases, 95% CI 1.44-8.39, p=0.003): 3.47
- PFS HR, multivariable analysis ([1]; TP53 mutation v. wildtype, adjusted, 95% CI 1.45-10.86, p=0.007): 3.97
- OS HR, multivariable analysis ([1]; TP53 mutation v. wildtype, adjusted, 95% CI 2.56-24.41): 7.90
- median OS [1, 3]: 34.4 months
- median PFS [1, 3]: 12.8 months
- OS HR ([1]; high v. low PDGFRA expression, 95% CI 1.01-4.35, p=0.04): 2.08
- median PFS ([1]; patients with partial response or stable disease): 6.4 months
- OS HR ([1]; subgroup A v. subgroup B or C, 22 IHCnegTP53 wt patients, 95% CI 0.04-0.96, p=0.03): 0.20
- PFS HR ([1]; subgroup A v. subgroup B or C, 22 IHCnegTP53 wt patients, 95% CI 0.09-0.85, p=0.02): 0.27
- median OS ([1]; whole cohort, 38 patients): 9.5 months
- median PFS ([1]; whole cohort, 38 patients, pazopanib 800 mg once daily): 3.7 months

Compound: CNC(=O)c1cc(Oc2ccc(NC(=O)Nc3ccc(Cl)c(C(F)(F)F)c3)c(F)c2)ccn1 [regorafenib, Regorafenib]
- efficacy in STS subtypes (STS subtypes): efficacy in several STS subtypes but not adipocytic tumours

Compound: olaratumab
- OS benefit (advanced STS): marked OS benefit
